From patent US20190183856A1, “METHODS FOR TREATING CANCER” (Macau University of Science and Technology, priority 2017, published 2019)
pIC50: −log10 of the molar value.

Assays:
Format in all cases: cell-based, Human
[1] = system: p53/Bax/cPARP signaling axis in HCT116 cells; assay: Western blotting of apoptosis markers p53, Bax, cPARP; conditions: 48 hours
Procedure: (§1) HCT116 cells were treated with APTM at indicated concentrations for 48 hours, and harvested via trypsinization. Protein samples were prepared by scratching cells in RIPA buffer containing protease inhibitor cocktail (Roche) and diluted in SDS-PAGE protein sample buffer. Samples were heated for 5 minutes at 100° C. Protein concentrations were measured using Direct Detect® Infrared Spectrometer (Millipore, USA) according to the manufacturer's instructions. Equal amount of proteins were loaded on 4-20% SDS-polyacrylamide (PAGE) gel. After electrophoresis, gels were transferred to a PVDF membrane (Millipore) and incubated with primary antibodies overnight at 4° C. The membranes were then washed with TBST and incubated with horseradish peroxidase-conjugated anti-rabbit or anti-mouse antibodies (1:10000, Santa Cruz, Calif., USA) for 45 min at room temperature. Proteins were visualized with SuperSignal West Dura Extended Duration Substrate or SuperSignal West Pico Chemiluminescent Substrate (Thermo Scientific) using the Amersham Imager 600 western blotting system.

HCT116 p53−/− cells [2] = assay: In vitro cell proliferation assay (SRB assay) on HCT116 p53-/- cells
Procedure: (§2) Human colon cancer cell line HCT116 (p53+/+) was purchased from ATCC and the p53−/− HCT116 cell line was provided by Bert Vogelstein, Johns Hopkins University. Cells were cultured in McCoy's 5A medium supplemented with 10% FBS, 100 units/ml penicillin G, and 100 μg/ml streptomycin in humidified atmosphere with 5% CO2. Cells were passaged twice weekly to maintain logarithmic growth.
(§3) The anti-proliferative effects of APTM on cancer cell lines were assessed by sulforhodamine B (SRB) colorimetric assay. Cells were seeded in 96-well plates at densities of 5,000 cells per well and cultured overnight. Then cells were susceptible to APTM at indicated concentrations and cultured for indicated times. After incubation, attached cells were fixed with 50 μL cold 50% (w/v) trichloroacetic acid (TCA) for 1 hour at 4° C., washed 5 times with slow-running tap water, and stained with 100 μL 0.4% (w/v) SRB. Optical density at 515 nm (OD515) was measured using a microplate reader (Molecular Devices) after mixing the protein-bound dye with 200 μL 10 mM Tris base solution (pH 10.5). The relative cell growth rate was determined with the following equation: Relative Growth (%)=OD (treated)/OD (control). The IC50 value was defined as the concentration required for a 50% reduction in cell growth.

HCT116 p53−/− cells [3] = assay: Assessment of cell morphological changes (Hoechst 33258 staining), p53-deficient cells; conditions: highest concentration of 30 μM, 48 hours
Procedure: (§4) Cells were plated in 6-well plates (200,000 cells/well) and treated with indicated concentrations of APTM. After incubation for 48 hours, cells were collected, washed with PBS and stained with Hoechst 33258 ([…]) in buffered formalin solution containing 5.6% NP-40. Apoptotic and living cells were viewed through DAPI filter of fluorescence inverted microscope (Leica DM2500 Fluorescence Microscope) at 400× magnifications.

[4] = system: Bax and cPARP expression in HCT116 p53−/− cells; assay: Western blotting of apoptosis markers, p53-deficient cells; conditions: different APTM concentrations
Procedure: as §1

HCT116 (p53+/+) cells = assay: In vitro cell proliferation assay (SRB assay) on HCT116 cells; conditions: for relative growth rate: 10 μM APTM, percentage of control
Procedure: as §2, §3

HCT116 cells [5] = assay: Colony formation assay; conditions: 8 days
Procedure: HCT116 cells were plated at 3,000 cells/well in six-well plates and cultured with indicated concentrations of APTM for 8 days. Cells were stained with 0.2% (w/v) crystal violet in buffered formalin for 20 minutes, and colonies were then photographed and quantified as previously described.

HCT116 p53−/− cells [6] = assay: Analysis of apoptosis by flow cytometry (Annexin V-FITC/PI), p53-deficient cells; conditions: 48 hours
Procedure: (§5) Annexin V-FITC/PI double staining method was employed for the apoptosis assay in HCT116 p53+/+ and HCT116 p53−/− cells (1×10^6/well, 6-well plate). After 48 hours of treatment with APTM, cells were harvested in 15 ml centrifuge tubes by gentle scraping followed by centrifugation at 300×g for 5 minutes at room temperature. Cell suspension was washed two times with cold PBS by centrifugation at 300×g for 5 minutes at room temperature. Then cells were harvested, washed twice with cold PBS, and resuspended in 1×binding buffer (100 μL). Cells were transferred into a 1.5 ml micro-centrifuge tubes and stained with propidium iodide (5 μL) and FITC annexin V (5 μL). Cells were briefly vortexed after incubation for 15 minutes in the dark at room temperature. Then cells were filtered and analyzed by flow cytometry. Total apoptotic cells (FITC to Annexin V positive) were counted.

HCT116 cells [7] = assay: Assessment of cell morphological changes (Hoechst 33258 staining); conditions: HCT116 cells, 3, 10 and 30 μM, 48 hours
Procedure: as §4

HCT116 cells [8] = assay: Analysis of cell cycle by flow cytometry (PI staining); conditions: 48 hours
Procedure: Cell cycle distribution was determined by staining DNA with propidium iodide (PI). Briefly, 1.0×10^6 cells were incubated with or without APTM for 48 hours. Cells were washed with cold PBS and fixed in 70% ethanol at −20° C. for 2 hours. After washing with PBS, cells were stained with cold PI solution (20 μg/ml PI and 200 μg/mI RNase in PBS) for 30 minutes at room temperature in the dark. The percentage of cells in different phases of the cell cycle was determined by flow cytometer (BD Bioscience) and analyzed using FlowJo software.

HCT116 p53+/+ cells = assay: Analysis of apoptosis by flow cytometry (Annexin V-FITC/PI); conditions: 48 hours, control 2.53%
Procedure: as §5

Cc1cccc(C)c1Nc1sc(C(=O)c2ccc(F)cc2)c(N)c1S(=O)(=O)c1ccccc1 [APTM, [3-Amino-5-[(2,6-dimethylphenyl)amino]-4-(phenylsulfonyl)-2-thienyl](4-fluorophenyl)methanone]
Bax level [1]: induced | cleaved nuclear poly(ADP-ribose) polymerase (cPARP) level [1]: concentration-dependently induction | p53 protein level [1]: substantially induced | resistance of p53 deficient cells versus HCT116 p53+/+ cells (IC50 ratio) (HCT116 p53−/− cells [2]; HCT116 p53−/− vs HCT116 p53+/+): more than 5 fold | pIC50 (HCT116 p53−/− cells [2]; Homo sapiens, HCT-116, HCT116 p53−/− cells, 33.3 μM highest concentration tested, read-out: IC50 value (50% reduction in cell growth)): < 4.48 | nuclear staining / apoptotic morphological changes (Hoechst staining) (HCT116 p53−/− cells [3]): reserved normal nuclear staining | Bax and cPARP expression [4]: blunted | relative growth rate (HCT116 (p53+/+) cells; 24 hours): 76.36% | relative growth rate (HCT116 (p53+/+) cells; 72 hours): 24.57% | pIC50 (HCT116 (p53+/+) cells; Homo sapiens, HCT-116, 48 hours, SRB assay, read-out: IC50 value (50% reduction in cell growth)): 5.18 | Colony formation ability (HCT116 cells [5]; 3.0 μM): significantly decreased | Colony formation ability (HCT116 cells [5]; 10.0 μM): almost vanished | APTM induced apoptosis (annexin V-FITC/PI flow cytometry) (HCT116 p53−/− cells [6]): resistant | apoptotic morphological changes (Hoechst staining) (HCT116 cells [7]): typical morphological characteristics of apoptosis | sub-G0/G1 fraction of cells (HCT116 cells [8]; concentration-dependent): increased | proportions of cells in G0/G1, S and G2/M phases (HCT116 cells [8]; different concentrations): almost unchanged | percentage of apoptotic cells (annexin V positive) (HCT116 p53+/+ cells; 3 μM): 7.67% | percentage of apoptotic cells (annexin V positive) (HCT116 p53+/+ cells; 10 μM): 20.86% | percentage of apoptotic cells (annexin V positive) (HCT116 p53+/+ cells; 30 μM): 43.7%
